Assay results taken from PubChem BioAssay (NCI).
Several values for one entry are separate records, joined by “and”; a condition that tells them apart may be missing. Equal entries are not always repeated.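 Where inhibition never reached the appropriate level, the endpoint shown equals the highest concentration tested. Otherwise, values were interpolated linearly from a five-concentration, 48-hour dose response in 96-well plates. The concentration for 50% growth inhibition is given as GI50. At the TGI there is no net growth.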

Experiments:
Test in all cases: NCI tumour cell line growth inhibition, 48 h
CAKI-1 renal = tested on: CAKI-1 renal
DU-145 prostate = tested on: DU-145 prostate
EKVX NSCLC = tested on: EKVX NSCLC
HCT-116 colon = tested on: HCT-116 colon
HCT-15 colon = tested on: HCT-15 colon
LOX IMVI melanoma = tested on: LOX IMVI melanoma
MDA-MB-435 = tested on: MDA-MB-435
RPMI-8226 leukemia = tested on: RPMI-8226 leukemia
TK-10 renal = tested on: TK-10 renal
U251 CNS = tested on: U251 CNS

Structure (SMILES)	GI50 (CAKI-1 renal)	TGI (CAKI-1 renal)	GI50 (DU-145 prostate)	TGI (DU-145 prostate)	GI50 (EKVX NSCLC)	TGI (EKVX NSCLC)	GI50 (HCT-116 colon)	TGI (HCT-116 colon)	GI50 (HCT-15 colon)	TGI (HCT-15 colon)	GI50 (LOX IMVI melanoma)	TGI (LOX IMVI melanoma)	GI50 (MDA-MB-435)	TGI (MDA-MB-435)	GI50 (RPMI-8226 leukemia)	TGI (RPMI-8226 leukemia)	GI50 (TK-10 renal)	TGI (TK-10 renal)	GI50 (U251 CNS)	TGI (U251 CNS)
CCCCOC(=O)c1c(C)[nH]c(/C=C2\N=C(c3ccc[nH]3)C=C2OC)c1C	0.071 µM	3.85 µM	0.274 µM	6.37 µM	0.46 µM	4.88 µM	0.0412 µM	1.36 µM	0.053 µM	1.29 µM	0.0296 µM	0.102 µM	0.123 µM	1.74 µM	0.175 µM	2.04 µM	0.185 µM	5.07 µM	0.12 µM	1.76 µM
Fc1ccc(Nc2nc3nonc3nc2Nc2ccc(I)cc2)cc1	0.251 µM	14.7 µM	0.395 µM	16.8 µM	0.273 µM	10.1 µM	0.24 µM	11.3 µM	0.302 µM	10.5 µM	0.349 µM	1.44 µM	0.276 µM	10.8 µM	0.0855 µM	2.13 µM	0.315 µM	2.18 µM	0.293 µM	10.8 µM
NC1(C(=O)N[C@@H](CCO)c2ccc(Cl)cc2)CCN(c2ncnc3[nH]ccc23)CC1	> 2.14 µM and 14.1 µM	> 100 µM	> 2.74 µM and 29.7 µM	> 100 µM	7.46 µM	> 100 µM	2.75 µM and 10.7 µM	> 10 µM and 78.6 µM	> 3.33 µM and 53.9 µM	> 100 µM	> 2.85 µM and 22.2 µM	> 100 µM	2.34 µM and 4.94 µM	> 100 µM	> 2.61 µM and 27.3 µM	> 81.8 µM	1.04 µM and 2.56 µM	> 69.7 µM	> 3.38 µM and 2 µM	> 100 µM
CC(=O)ON=C1C=CC(=C(C#N)c2ccccc2)C=C1	0.396 µM	2.71 µM	0.704 µM	2.86 µM	6.96 µM	42.4 µM	0.283 µM	11.5 µM	0.97 µM	14.2 µM	0.393 µM	5.58 µM	0.283 µM	2.28 µM	0.428 µM	2.94 µM	2.58 µM	9.9 µM	0.622 µM	10.5 µM
CN(C)CCCCNc1ccc(NCCCCN(C)C)c2c1C(=O)c1c(O)ccc(O)c1C2=O	8.15 µM	21.6 µM	1.29 µM	2.55 µM	1.81 µM	3.82 µM	1.51 µM	2.83 µM	1.55 µM	2.93 µM	1.42 µM	2.73 µM	13.3 µM	26.1 µM	2.54 µM	6.49 µM	13.3 µM	26.4 µM	1.69 µM	3.08 µM
COc1cc2c(cc1[N+](=O)[O-])C(=O)C(Br)(Br)CCC2		7.8 µM		25.8 µM		6.25 µM		1.87 µM		3.67 µM		1.97 µM		10.9 µM		4.07 µM		9.72 µM		9.04 µM
COc1ccc(/C=C/C(=O)/C=C(O)/C=C/c2ccc(OC)c(OC)c2)cc1OC	3.55 µM	23 µM	3.72 µM	> 100 µM	4.13 µM	> 100 µM	1.83 µM	5.96 µM	3.76 µM	> 100 µM	2.54 µM	17.9 µM	3.32 µM	> 100 µM	0.559 µM	6.85 µM	4.03 µM	> 100 µM	2.99 µM	> 100 µM
O=C(CN1CCN(C(=O)c2ccco2)CC1)Nc1ccc(Cl)cc1C(=O)c1ccccc1Cl	0.0273 µM	6.42 µM	15.5 µM	35.2 µM	5.53 µM	30 µM	13 µM	26.9 µM	5.14 µM	39.7 µM	11.1 µM	23.1 µM	5.83 µM	20.6 µM	1.33 µM	12.1 µM	10.2 µM	36.2 µM	8 µM	23.6 µM
CO/C(=C1/NC(=O)C(Cc2ccc(O)c(Br)c2)N(C)C(=O)C(C)NC(=O)CCC/C=C(\C)CCC(C)OC1=O)c1ccccc1 (stereo not given)	0.0196 µM	0.0509 µM	< 0.0185 µM	1.73 µM	0.0425 µM		< 0.0146 µM		0.0632 µM	13.4 µM	0.0159 µM	0.653 µM	0.0385 µM	13.3 µM	< 0.0155 µM	0.0607 µM			0.0199 µM	0.0909 µM
c1ccc(CC(Nc2cccnc2)c2ccccc2)cc1 (stereo not given)		> 100 µM		> 100 µM		98.3 µM		30.1 µM		> 100 µM		31.9 µM		64.4 µM		56.5 µM		94.9 µM		42 µM
CC[C@@H](C)/C=C(C)/C=C/C(=O)c1c(O)c(-c2ccc(O)cc2)cn(OC2CC(=O)CCC(C)OC(=O)CC2O)c1=O (stereo not given in full)	0.361 µM	3 µM	0.303 µM	13.4 µM	1.39 µM	12.3 µM	0.272 µM	13 µM	0.145 µM	15.8 µM	0.171 µM	2.7 µM	0.485 µM	19 µM	0.463 µM	22.9 µM	0.442 µM	19.9 µM	0.373 µM	12.5 µM
Cc1cc(-c2cc(OC(=O)c3ccccc3)ccc2Cl)cc2nnc(Nc3ccc(OCCN4CCCC4)cc3)nc12	1.36 µM	2.69 µM	1.75 µM	3.17 µM	1.61 µM	3.09 µM	1.59 µM	3.16 µM	0.197 µM	0.393 µM	1.45 µM	2.95 µM	1.62 µM	3.02 µM	1.6 µM	3.63 µM	1.63 µM	3.03 µM	1.65 µM	3.16 µM
CC#CC#C/C(=C/C=CC(=O)OC)SC		> 100 µM		> 100 µM		> 100 µM		> 100 µM		> 100 µM		> 100 µM		> 100 µM				> 100 µM		> 100 µM
COc1c(B(O)O)cccc1-c1nc2c(F)cc3n[nH]c(C)c3c2c2c1CCCC2	0.0106 µM	0.213 µM	1.42 µM	> 50 µM	1.42 µM	> 27 µM	0.314 µM	> 50 µM	1.49 µM	> 50 µM	0.688 µM	4.14 µM	1.86 µM	> 50 µM	0.655 µM	4.81 µM	0.0215 µM	49.6 µM	1.12 µM	> 50 µM
COc1cc2c(cc1-c1coc3cc(O)ccc3c1=O)OCO2		51.1 µM		> 100 µM		> 100 µM		37.1 µM		35.6 µM		> 100 µM		> 100 µM		77.5 µM		43.9 µM		45.9 µM
O=C1OCC2=C1C(c1cccc(Cl)c1)c1cc3c(cc1N2CCO)CCC3 (stereo not given)	0.0493 µM	14.7 µM	0.0406 µM	0.425 µM	0.295 µM	17.2 µM	0.0447 µM	2.92 µM	0.0471 µM	12.6 µM	0.0661 µM	13.8 µM	0.02 µM	0.0491 µM	0.0386 µM	10.1 µM	0.0464 µM	16.3 µM	0.0372 µM	4.5 µM
O=C(N/N=C/c1ccncc1)c1ccc(F)cc1	> 40 µM	> 40 µM	> 40 µM	> 40 µM	> 40 µM	> 40 µM	> 40 µM	> 40 µM	> 40 µM	> 40 µM	> 40 µM	> 40 µM	> 40 µM	> 40 µM	> 40 µM	> 40 µM	> 40 µM	> 40 µM	> 40 µM	> 40 µM
CC[C@@]1(O)C(=O)OCc2c1cc1n(c2=O)Cc2c-1nc1cc(F)c(C)c3c1c2[C@@H](NC(=O)CO)CC3	< 0.01 µM	0.117 µM	< 0.01 µM	> 100 µM	0.311 µM	> 100 µM	< 0.01 µM	> 100 µM	0.247 µM	> 100 µM	< 0.01 µM	0.0314 µM	0.0612 µM	3.05 µM	0.0721 µM	1.67 µM	0.4 µM	7.43 µM	< 0.01 µM	1.76 µM
CCOc1ccc2c(c1)C(=O)c1c-2n(CCCN=[N+]=[N-])c(=O)c2cc([N+](=O)[O-])ccc12	5.71 µM	89.2 µM	3.86 µM	38.6 µM	32.5 µM	> 100 µM	1.82 µM	> 100 µM	16.9 µM	> 100 µM	3.02 µM	> 100 µM	39.4 µM	> 100 µM	2.25 µM	31 µM	30.8 µM	> 100 µM	3.57 µM	37.7 µM
CCn1ncc(N=O)c1N		> 100 µM		> 100 µM		> 100 µM		> 100 µM		> 100 µM		> 100 µM		> 100 µM		> 100 µM		> 100 µM		
CN1CCN(CCC=C2c3ccccc3Sc3ccc(S(=O)(=O)N(C)C)cc32)CC1	3.45 µM and 5.41 µM	20.6 µM and 23.9 µM	13 µM and 12.6 µM	> 100 µM and 26.9 µM	9.15 µM and 13.6 µM	> 100 µM and 63.5 µM	3 µM and 3.35 µM	> 100 µM and 23.8 µM	3.3 µM and 2.52 µM	> 100 µM and 10.3 µM	1.7 µM and 2.79 µM	3.7 µM and 8.66 µM	1.89 µM and 2.08 µM	4.28 µM and 5.82 µM	2.33 µM and 2.6 µM	6.55 µM and 8.62 µM	2.22 µM and 7.92 µM	5.05 µM and 23.8 µM		
CC(=O)Nc1cc2c3c(cccc3c1)-c1ccccc1-2	4 µM	23.8 µM	16.3 µM	30.2 µM	7.94 µM	38.9 µM	> 100 µM	> 100 µM	> 100 µM	> 100 µM	38.9 µM	> 100 µM	30 µM	> 100 µM			18.1 µM	32.5 µM	39.3 µM	> 100 µM
CC1[C@@H]2CC=C3[C@H]4CCC5Cc6nc7c(nc6C[C@@]5(C)C4CC(=O)[C@]32CO[C@]12OC(C)(C)CC2O)CC1CC[C@@H]2C3=C[C@H]4O[C@@]5(O[C@@](C)(CO)C[C@@H]5O)C(C)[C@@]4(O)[C@]3(C)[C@@H](O)CC2[C@]1(C)C7 (stereo not given in full)			0.0538 µM	0.716 µM	0.00539 µM and 0.00763 µM	0.141 µM and 0.227 µM	0.000846 µM and 0.00281 µM	0.0837 µM and 0.532 µM	0.0041 µM and 0.00763 µM	0.102 µM and 0.129 µM	0.000361 µM and 0.000576 µM		0.00111 µM	0.0168 µM	0.000106 µM and < 0.000365 µM	0.000261 µM and < 0.000365 µM		0.576 µM	0.000183 µM and 0.000365 µM	0.129 µM and 0.0461 µM
COC(=O)c1c2c(c(C)[n+]([O-])c1C)C(=O)C(NCc1ccc(O)cc1)=CC2=O	1.69 µM	4.26 µM	1.75 µM	3.19 µM	1.73 µM	3.34 µM	0.333 µM	1.24 µM	1.43 µM	3.18 µM	0.938 µM	2.24 µM	1.68 µM	3.19 µM	1.78 µM	4.18 µM			1.77 µM	5.26 µM
O=C(/C=C/C=C/c1ccc2c(c1)OCO2)N/N=C\c1ccc(O)cc1O	2.24 µM	15.2 µM	3.46 µM	22.3 µM	2.05 µM	15.1 µM	2.02 µM	14.5 µM	0.776 µM	21.4 µM	1.18 µM	10.1 µM	4.35 µM	19 µM			2.95 µM	33 µM	1.64 µM	23 µM
COc1cc(C)[nH]c(=O)c1CNC(=O)c1c(C)n([C@H](C)C2CCN(CC(F)(F)F)CC2)c2ccccc12			57.8 µM	> 100 µM	37.5 µM	> 100 µM	59.3 µM	> 100 µM	44 µM	> 100 µM	41.6 µM	> 100 µM	46 µM	> 100 µM	32.5 µM	> 100 µM	88.5 µM	> 100 µM	90.6 µM	> 100 µM
